# Measured values as given in patent US20110092367A1, “Herbicidal Compositions Comprising 4-amino-3,6-dichloropyridine-2-carboxylic Acid” (BASF SE, priority 2008, published 2011).
# Key:
# Assay type in all cases: in vivo
# Alopecurus myosuroides [1] = experiment: Field trial Example 1, successive application: damage on ALOMY
# Text: (§1) Aminiopyralid was used as commercial aquaeous solution having an active ingredient concentration of 240 g/l (Milestone™). Metazachlor was used as a commercial suspension concentrate having an active ingredient concentration of 500 g/l (Butisan S®).
# (§2) The performance of aminopyralid applied as an alone treatment at 15, 30 and 50 g a.i./ha applied as an early post emergence treatment and an post emergence treatment in comparison to two different applications including metazachlor at 500 g a.i./ha as an early post emergence application in succession of aminopyralid as a post emergence application at 15 and 30 g a.i./ha was assessed in an oilseed rape field trials.
# (§3) The early post emergence treatment was applied by means of fine distributed nozzles at the growth stage (GS) of the crop BBCH 11-12.
# (§4) The post emergence treatment was applied by means of fine distributed nozzles at the growth stage (GS) of the crop BBCH 13-14.
# (§5) The test period extended over the autumn and spring season (205 days).
# (§6) In the following experiments, the herbicidal activity for the individual herbicide compounds (solo application) and of the herbicidal succession was assessed 4 times:
# (§7) The evaluation for the damage on undesired weeds caused by the chemical compositions was carried out using a scale from 0 to 100%, compared to the untreated control plants. Here, 0 means no damage and 100 means complete destruction of the plants.
# Centauria cyanus = experiment: Greenhouse trial, post-emergence: CENCY; details: for % activity 28 DAT: CENCY, post-emergence (Tables 7-9)
# Description: (§8) The test plants have been seeded, separately for each species, in plastic containers in sandy loamy soil containing 5% organic matter.
# (§9) For the post emergence treatment, the plants were first grown to the 2 leaf station (GS 12). Here, the herbicidal compositions were suspended or emulsified in water as distribution medium and sprayed using finely distributing nozzels.
# (§10) The plants have been cultivated due to there individual requirements at 10-25° C. and 20-35° C. The plants were irrigated due to there necessity. […]
# as §7
# (§11) Calculation of expected activity of binary mixtures was done by using the Colby-Formula according to Example 1.
# Alopecurus myosuroides [2] = experiment: Field trial Example 2, combined application: ALOMY; details: Aminopyralid 7.5 g ai/ha solo, 28 DAT
# Description: as §1, §7
# (§12) The value E, which is to be expected if the activity of the individual compounds is just additive, was calculated using the method of S. R. Colby (1967) “Calculating synergistic and antagonistic responses of herbicide combinations”, Weeds 15, p. 22 ff.
# (§13) The performance of aminopyralid, applied as an alone treatment at […] and 15 g ai/ha, and the performance of metazachlor, applied as an alone treatment at 375 and 500 g ai/ha, as well as the mixtures of the both compounds have been assessed in winter oilseed rape field trials. The trials have been conducted in Germany at two locations.
# (§14) Post emergence treatment was applied by means of fine distributed nozzels at the growth stage (GS/BBCH 11/12).
# Veronica persica = experiment: Field trial Example 1, successive application: damage on VERPE
# Text: as §1, §2, §3, §4, §5, §6, §7
# Matricaria inodora = experiment: Field trial Example 2, combined application: MATIN; details: Aminopyralid 7.5 g ai/ha solo
# Description: as §1, §7, §12, §13, §14
# Apera spica-venti = experiment: Field trial Example 1, successive application: damage on APESV
# Text: as §1, §2, §3, §4, §5, §6, §7
# Stellaria media [3] = experiment: Greenhouse trial, post-emergence: STEME; details: post-emergence (Tables 7-9)
# Description: as §8, §9, §10, §7, §11
# Stellaria media [4] = experiment: Field trial Example 1, successive application: damage on STEME
# Text: as §1, §2, §3, §4, §5, §6, §7
# [5] = 15 g ai/ha, treatment A early post emergence, DAT 25/DALT 10
# [6] = 15 g ai/ha, treatment A early post emergence, DAT 65/DALT 50
# [7] = 15 g ai/ha, treatment A early post emergence, DAT 176/DALT 161
# [8] = 15 g ai/ha, treatment B post emergence, DAT 25/DALT 10
# [9] = 15 g ai/ha, treatment B post emergence, DAT 65/DALT 50
# [10] = 15 g ai/ha, treatment B post emergence, DAT 176/DALT 161
# [11] = 30 g ai/ha, treatment A early post emergence, DAT 25/DALT 10
# [12] = 30 g ai/ha, treatment A early post emergence, DAT 65/DALT 50
# [13] = 30 g ai/ha, treatment A early post emergence, DAT 176/DALT 161
# [14] = 30 g ai/ha, treatment B post emergence, DAT 25/DALT 10
# [15] = 30 g ai/ha, treatment B post emergence, DAT 65/DALT 50
# [16] = 30 g ai/ha, treatment B post emergence, DAT 176/DALT 161
# [17] = 50 g ai/ha, treatment A early post emergence, DAT 25/DALT 10
# [18] = 50 g ai/ha, treatment A early post emergence, DAT 65/DALT 50
# [19] = 50 g ai/ha, treatment A early post emergence, DAT 176/DALT 161
# [20] = 50 g ai/ha, treatment B post emergence, DAT 25/DALT 10
# [21] = 50 g ai/ha, treatment B post emergence, DAT 65/DALT 50
# [22] = 50 g ai/ha, treatment B post emergence, DAT 176/DALT 161
# [23] = aminopyralid 15 g ai/ha, treatment A, DAT 205/DALT 190
# [24] = aminopyralid 15 g ai/ha, treatment B, DAT 205/DALT 190
# [25] = aminopyralid 30 g ai/ha, treatment A, DAT 205/DALT 190
# [26] = aminopyralid 30 g ai/ha, treatment B, DAT 205/DALT 190
# [27] = aminopyralid 50 g ai/ha, treatment A, DAT 205/DALT 190
# [28] = aminopyralid 50 g ai/ha, treatment B, DAT 205/DALT 190
# [29] = post-emergence, 672 h, read-out: % activity 28 DAT, CENCY
structure (smiles),measurement,setting,value
"Nc1cc(Cl)nc(C(=O)O)c1Cl [aminopyralid, 4-amino-3,6-dichloropyridine-2-carboxylic acid]",damage on ALOMY,Alopecurus myosuroides [1]; [5],0%
same,damage on ALOMY,Alopecurus myosuroides [1]; [6],22%
same,damage on ALOMY,Alopecurus myosuroides [1]; [7],22%
same,damage on ALOMY,Alopecurus myosuroides [1]; [8],0%
same,damage on ALOMY,Alopecurus myosuroides [1]; [9],25%
same,damage on ALOMY,Alopecurus myosuroides [1]; [10],25%
same,damage on ALOMY,Alopecurus myosuroides [1]; [11],57%
same,damage on ALOMY,Alopecurus myosuroides [1]; [12],37%
same,damage on ALOMY,Alopecurus myosuroides [1]; [13],37%
same,damage on ALOMY,Alopecurus myosuroides [1]; [14],0%
same,damage on ALOMY,Alopecurus myosuroides [1]; [15],32%
same,damage on ALOMY,Alopecurus myosuroides [1]; [16],32%
same,damage on ALOMY,Alopecurus myosuroides [1]; [17],77%
same,damage on ALOMY,Alopecurus myosuroides [1]; [18],80%
same,damage on ALOMY,Alopecurus myosuroides [1]; [19],80%
same,damage on ALOMY,Alopecurus myosuroides [1]; [20],20%
same,damage on ALOMY,Alopecurus myosuroides [1]; [21],42%
same,damage on ALOMY,Alopecurus myosuroides [1]; [22],42%
same,damage on ALOMY,Alopecurus myosuroides [1]; [23],22%
same,damage on ALOMY,Alopecurus myosuroides [1]; [24],38%
same,damage on ALOMY,Alopecurus myosuroides [1]; [25],37%
same,damage on ALOMY,Alopecurus myosuroides [1]; [26],32%
same,damage on ALOMY,Alopecurus myosuroides [1]; [27],80%
same,damage on ALOMY,Alopecurus myosuroides [1]; [28],42%
same,% activity 28 DAT,Centauria cyanus; aminopyralid 5 g ai/ha solo,60%
same,% activity 28 DAT,Centauria cyanus; aminopyralid 10 g ai/ha solo,65%
same,inhibition at 5 g/ha,Centauria cyanus; [29],70%
same,inhibition at 10 g/ha,Centauria cyanus; [29],85%
same,% activity,Alopecurus myosuroides [2],60%
same,damage on VERPE,Veronica persica; [5],0%
same,damage on VERPE,Veronica persica; [6],0%
same,damage on VERPE,Veronica persica; [7],0%
same,damage on VERPE,Veronica persica; [8],0%
same,damage on VERPE,Veronica persica; [9],0%
same,damage on VERPE,Veronica persica; [10],12%
same,damage on VERPE,Veronica persica; [11],23%
same,damage on VERPE,Veronica persica; [12],13%
same,damage on VERPE,Veronica persica; [13],12%
same,damage on VERPE,Veronica persica; [14],0%
same,damage on VERPE,Veronica persica; [15],0%
same,damage on VERPE,Veronica persica; [16],10%
same,damage on VERPE,Veronica persica; [17],73%
same,damage on VERPE,Veronica persica; [18],50%
same,damage on VERPE,Veronica persica; [19],50%
same,damage on VERPE,Veronica persica; [20],13%
same,damage on VERPE,Veronica persica; [21],20%
same,damage on VERPE,Veronica persica; [22],30%
same,damage on VERPE,Veronica persica; [23],0%
same,damage on VERPE,Veronica persica; [24],18%
same,damage on VERPE,Veronica persica; [25],12%
same,damage on VERPE,Veronica persica; [26],12%
same,damage on VERPE,Veronica persica; [27],48%
same,damage on VERPE,Veronica persica; [28],33%
same,% activity,Matricaria inodora; 28 DAT,78%
same,% activity,Matricaria inodora; 29 DAT,87%
same,damage on APESV,Apera spica-venti; [6],28%
same,damage on APESV,Apera spica-venti; [7],28%
same,damage on APESV,Apera spica-venti; [9],32%
same,damage on APESV,Apera spica-venti; [10],32%
same,damage on APESV,Apera spica-venti; [12],47%
same,damage on APESV,Apera spica-venti; [13],47%
same,damage on APESV,Apera spica-venti; [15],38%
same,damage on APESV,Apera spica-venti; [16],38%
same,damage on APESV,Apera spica-venti; [18],85%
same,damage on APESV,Apera spica-venti; [19],85%
same,damage on APESV,Apera spica-venti; [21],55%
same,damage on APESV,Apera spica-venti; [22],55%
same,damage on APESV,Apera spica-venti; [23],28%
same,damage on APESV,Apera spica-venti; [24],45%
same,damage on APESV,Apera spica-venti; [25],47%
same,damage on APESV,Apera spica-venti; [26],38%
same,damage on APESV,Apera spica-venti; [27],85%
same,damage on APESV,Apera spica-venti; [28],55%
same,% activity 28 DAT,Stellaria media [3]; aminopyralid 5 g ai/ha solo,35%
same,% activity 28 DAT,Stellaria media [3]; aminopyralid 10 g ai/ha solo,65%
same,damage on STEME,Stellaria media [4]; [5],32%
same,damage on STEME,Stellaria media [4]; [6],52%
same,damage on STEME,Stellaria media [4]; [7],93%
same,damage on STEME,Stellaria media [4]; [8],12%
same,damage on STEME,Stellaria media [4]; [9],50%
same,damage on STEME,Stellaria media [4]; [10],77%
same,damage on STEME,Stellaria media [4]; [11],90%
same,damage on STEME,Stellaria media [4]; [12],97%
same,damage on STEME,Stellaria media [4]; [13],98%
same,damage on STEME,Stellaria media [4]; [14],38%
same,damage on STEME,Stellaria media [4]; [15],68%
same,damage on STEME,Stellaria media [4]; [16],95%
same,damage on STEME,Stellaria media [4]; [17],100%
same,damage on STEME,Stellaria media [4]; [18],100%
same,damage on STEME,Stellaria media [4]; [19],100%
same,damage on STEME,Stellaria media [4]; [20],67%
same,damage on STEME,Stellaria media [4]; [21],88%
same,damage on STEME,Stellaria media [4]; [22],95%
same,damage on STEME,Stellaria media [4]; [23],93%
same,damage on STEME,Stellaria media [4]; [24],78%
same,damage on STEME,Stellaria media [4]; [25],100%
same,damage on STEME,Stellaria media [4]; [26],98%
same,damage on STEME,Stellaria media [4]; [27],100%
same,damage on STEME,Stellaria media [4]; [28],97%
